We go through four molecules from patent US20100291242A1, “ANTAGONIST AGAINST TOLERANCE TO ANTICANCER DRUGS” (Yoshikazu SUGIMOTO, priority 2004, published 2010).

Values after ≈ are worked out from the molar mass of the structure shown. Like-named read-outs stand apart in the source and are kept apart here.

One test deals with p-glycoprotein. In words: Western blotting of exogenous p-glycoprotein expression in MCF-7/MDR1 cells. The settings on record: estradiol 3 nM, 4 days, antibody C219. In kind it is cell-based, human. In general terms: A western blot detects proteins with antibodies after separation by electrophoresis.
In another test the test system is MCF-7 cells. Nature of the test: Cell growth inhibition test, MCF-7 cells. Format: cell-based, human. The settings on record: for IC50: Homo sapiens, MCF7, 96 h, read-out: IC50 (concentration at which cell growth is inhibited by 50%); for IC50 / IC50 (concentration at which cell growth is inhibited by 50%): 4 days. On the procedure: (§1) A cell growth inhibition test was performed to investigate the sensitivity of MCF-7 cells and MCF-7/MycBCRP cells to SN-38. Respective cells were seeded on 12-well plates (Iwaki) in amounts of 30,000 cells/1 mL/well. Subsequently, the drug, diluted with a medium to different concentrations, was added thereto (1 mL per well). The plates were placed in a 5% CO2 incubator and cultivation was performed at 37° C. for […]. Four days after, a cell solution in each well was added to a beaker containing a […] diluent (9.5 mL, To a Medical Electronics Co.). The number of cells was counted by means of a Sysmex CDA-500 automatic cell counter (To a Medical Electronics Co.).
(§2) A cell growth inhibition test was performed to investigate whether estradiol induces any change in sensitivity of MCF-7 cells and MCF-7/MycBCRP cells to SN-38. Respective cells were seeded on 12-well plates (Iwaki) in amounts of 30,000 cells/1 mL/well. Subsequently, the drug, diluted with a medium to different concentrations, was added thereto (1 mL per well). The final concentration of estradiol was adjusted to 0.03 nM or 3 nM. The plates were placed in a 5% CO2 incubator and cultivation was performed at 37° C. for 4 days. Four days after, a cell solution in each well was added to a beaker containing a […] diluent (9.5 mL, To a Medical Electronics Co.). The number of cells was counted by means of a Sysmex CDA-500 automatic cell counter (To a Medical Electronics Co.). In FIG. 4, the cell count is shown by “% of control,” which was obtained by dividing “the cell count as measured when the drug diluted to have different concentrations was added” by “the cell count as measured when no such drug was added.”

The subject of a further test is MCF-7/MycBCRP cells. Nature of the test: Cell growth inhibition test, MCF-7/MycBCRP cells. In kind it is cell-based, human. The settings on record: for IC50: Homo sapiens, MCF7, 96 h, read-out: IC50 (concentration at which cell growth is inhibited by 50%); for IC50 / IC50 (concentration at which cell growth is inhibited by 50%): 4 days. On the procedure:
The cells were named MCF-7/MycBCRP. […] In each lane, 20 μg of protein was electrophoresed.
as §1, §2

The test system of another test is BCRP. Particulars: MCF-7 cells. The method, then: Western blotting was performed to investigate the effect of a steroid hormone and a female hormone on MCF-7, A549, and JEG-3 cells, which intrinsically express BCRP at high level, in terms of the expression level of BCRP. […] Afterwards, expression level of BCRP was determined through the Western blotting technique using an anti-BCRP antibody. In each lane, 30 μg of protein was electrophoresed.

On to `C[C@]12CC[C@@H]3c4ccc(O)cc4CC[C@H]3[C@@H]1CC[C@@H]2O` [estradiol], for which, in the test on p-glycoprotein, the “decrease of expression level of exogenous p-glycoprotein” value is on record as “about 20%”.
Consider `CC[C@]1(O)C[C@H]2CN(CCc3c([nH]c4ccccc34)[C@@](C(=O)OC)(c3cc4c(cc3OC)N(C=O)[C@H]3[C@@](O)(C(=O)OC)[C@H](OC(C)=O)[C@]5(CC)C=CCN6CC[C@]43[C@@H]65)C2)C1` [Vincristine, vincristine], for which the IC50 with MCF-7 cells (E2 (estradiol) 0.03 nM) was 0.64 ± 0.01 ng/mL (≈ 0.776 nM); in the test on MCF-7 cells (E2 (estradiol) 3 nM), 0.6 ± 0.02 ng/mL (≈ 0.727 nM); in the test with MCF-7/MycBCRP cells (E2 (estradiol) 0.03 nM), 0.68 ± 0.03 ng/mL (≈ 0.824 nM); in the test with MCF-7/MycBCRP cells (E2 (estradiol) 3 nM), 0.6 ± 0.02 ng/mL (≈ 0.727 nM).
Turning to `CCc1c2c(nc3ccc(O)cc13)-c1cc3c(c(=O)n1C2)COC(=O)[C@]3(O)CC` [SN-38, 7-ethyl-10-hydroxycamptothecin], the “sensitivity at estradiol 0.03 nM and 3 nM (in words)” value in the test with MCF-7 cells is “almost the same level”. For the same molecule, the “IC50 (concentration at which cell growth is inhibited by 50%)” value with MCF-7 cells (E2 (estradiol) 0.03 nM) is listed as 0.64 ± 0.06 ng/mL (≈ 1.63 nM); in the test with MCF-7 cells (E2 (estradiol) 3 nM) it was 0.50 ± 0.02 ng/mL (≈ 1.27 nM); in the test with MCF-7/MycBCRP cells (E2 (estradiol) 0.03 nM), 2.13 ± 0.19 ng/mL (≈ 5.43 nM); with MCF-7/MycBCRP cells (E2 (estradiol) 3 nM), 1.09 ± 0.09 ng/mL (≈ 2.78 nM). The “increase in sensitivity at estradiol 3 nM as compared with 0.03 nM” value with MCF-7/MycBCRP cells was “about twice”.
As for `CC/C(=C(/CC)c1ccc(O)cc1)c1ccc(O)cc1` [diethylstilbestrol], the “effect on expression of endogenous BCRP (in words)” value with BCRP is “suppressive effect”.
